# Tests used:
# [1] = test system: C3H Mammary adenocarcinoma 16/C; assay: Growth of subcutaneous transplants of C3H mammary adenocarcinoma 16/C in mice; type: in vivo, B6C3F1 hybrid female mice; details: 5-Fluorouracil 98 mg/kg, i.p., qd (1, 7, 14, 21)
# Source text: Anticancer activities of T4GEN and n-T4GEN were studied in animals bearing subcutaneous transplants of C3H Mammary adenocarcinoma 16/C. This tumor is maintained as a lung passed tumor in C3H female mice. In this example, tumors (1×10^6 cells) were transplanted (S.C.) in 18-20 g B6C3F1 hybrid female mice. On the following day, the tumor bearing animals were randomized and separated into different treatment groups (10 mice per group). There were 15 animals in the control group who received only physiological saline during the treatment periods. […] Animals were weighed on days 5, 9 and 14 to assess toxic effects. Tumors were measured on days 21, 28 post transplants and the results are represented as tumor weights using formula [formula]
# (I=length of tumor, w=width of tumor expressed in mm).
# [2] = Body weight change of tumor bearing mice (toxic effects); type: in vivo, B6C3F1 hybrid female mice; details: 5-Fluorouracil 98 mg/kg, i.p., qd (1, 7, 14, 21)
# Source text: Anticancer activities of T4GEN and n-T4GEN were studied in animals bearing subcutaneous transplants of C3H Mammary adenocarcinoma 16/C. This tumor is maintained as a lung passed tumor in C3H female mice. In this example, tumors (1×10^6 cells) were transplanted (S.C.) in 18-20 g B6C3F1 hybrid female mice. On the following day, the tumor bearing animals were randomized and separated into different treatment groups (10 mice per group). There were 15 animals in the control group who received only physiological saline during the treatment periods. The treatments (i.p.) were started 48 hours after the transplants and given for a duration of 14 days (daily single injections). Animals were weighed on days 5, 9 and 14 to assess toxic effects. Tumors were measured on days 21, 28 post transplants and the results are represented as tumor weights using formula [formula]
compound,measurement,setting,value
O=c1[nH]cc(F)c(=O)[nH]1 [5-Fluorouracil],Tumor Free Animals (day 93),[1],0/6
same,Tumor Wts (day 21),[1],0.00
same,Tumor Weight Inhibition %,[1]; day 21,100%
same,ΔWts (g) (day 14),[2],+1.77 g
